Data taken from ChEMBL document CHEMBL3603796, “Lipid-lowering polyketides from a soft coral-derived fungus Cladosporium sp. TZP29” (Bioorg Med Chem Lett, 2015).
pIC50: −log10 of the molar value. Calls of active or inactive are those of the source. No cut-off for these calls is given here.

Key:
[1] = test system: A549; assay: Cytotoxicity against human A549 cells up to 50 uM by SRB assay; format: cell-based
[2] = test system: HeLa; assay: Cytotoxicity against human HeLa cells up to 50 uM by SRB assay; format: cell-based
[3] = test system: SMMC-7721; assay: Cytotoxicity against human SMMC7721 cells up to 50 uM by SRB assay; format: cell-based
[4] = test system: Laribacter hongkongensis; assay: Antibacterial activity against Laribacter hongkongensis by disc diffusion assay; format: functional
[5] = test system: Micrococcus luteus; assay: Antibacterial activity against Micrococcus luteus by disc diffusion assay; format: functional, organism-based
[6] = test system: uncultured Ruegeria sp.; assay: Antibacterial activity against Ruegeria sp. by disc diffusion assay; format: functional
[7] = test system: Amphibalanus amphitrite; assay: Antifouling activity against Balanus amphitrite by settlement inhibition assay; format: functional, organism-based
[8] = Antifouling activity against Bugula neritina by settlement inhibition assay; format: functional
[9] = test system: HepG2; assay: Lipid lowering activity in human HepG2 cells assessed as decrease in oleic acid elicited lipid accumulation after 6 hrs by oil-red O staining method; format: functional, cell-based; settings: HepG2, 6 h

pIC50 [9]	Structure (SMILES)	Activity [1]	Activity [2]	Activity [3]	Activity [4]	Activity [5]	Activity [6]	Activity [7]	Activity [8]
–	C[C@@H](O)CCCCC[C@H](O)[C@@H]1C=CC(=O)O1	Non-toxic	Non-toxic	Non-toxic	inactive	inactive	inactive	inactive	inactive
–	C[C@@H](O)CCCCCC[C@H]1OC(=O)C[C@@H]1O	Non-toxic	Non-toxic	Non-toxic	–	–	–	–	–
5.08	CC[C@H](C)C(=O)O[C@H]1C[C@@H](C)C=C2C=C[C@H](C)[C@H](CC[C@@H]3C[C@@H](O)CC(=O)O3)[C@H]21 [LOVASTATIN]	–	–	–	–	–	–	–	–
